From US7378446B2, “Compound having anti-HCV activity and process for producing the same” (Chugai Seiyaku Kabushiki Kaisha, priority 2003, dated 2008)

Legend:
[1] = tested on: Firefly luciferase HCV replicon cells (3-1); experiment: Replicon assay (firefly luciferase HCV replicon); type: cell-based; conditions: Hepatitis C virus, 72 h; Huh7-derived luciferase HCV replicon cells, 3 days culture with compound, Steady-Glo luminescence
Procedure: (§1) A construct was prepared in which a luciferase gene derived from firefly was introduced as a reporter gene in HCV-RNA to assay the number of copies of HCV-RNA. The luciferase gene was introduced in the form of fusing with neomycin-resistance gene directly below the IRES (Internal Ribosome Entry Site) of the HCV gene in accordance with the method of Krieger, et al. (J. Virol. 75:4614). After synthesizing this RNA in vitro, it was introduced into Huh7 cell by electroporation and isolated as G418-resistant clone. Firefly luciferase HCV replicon cells (3-1) were suspended in Dulbecco's MEM (Gibco cat. no. 10569-010) containing 5% fetal bovine serum (Hyclone cat. no. SH30071.03), inoculated into the wells of a 96-well plate at 5000 cells/well and then cultured overnight at 37° C. and 5% CO2. Approximately 20 hours later, the diluted test compound was added at 10 μl per well followed by culturing for another 3 days. Two series of assay plates were prepared, and the assay was carried out using a white plate for one series and a clear plate for the other series. Following completion of culturing, the white plate was used for the Steady-Glo Luciferase Assay System (Promega cat. no. E2520). Namely, after adding 100 μl of reagent per well, mixing by a pipette 3 to 4 times and then allowing to stand for 5 minutes, luminescence was measured with the 1450 MicroBeta TRILUX (Wallac). Values obtained in the absence of cell addition were used as background values and subtracted from all values to calculate the IC50 (50% inhibitory concentration) of the drug based on a value of 0% inhibition for the value in the absence of addition of test compound.

in vitro = type: cell-based; conditions: human; replicon cells, 3 days culture with compound, Cell Counting Kit 8, absorbance 450 nm; read-out: Cytotoxicity CC50
Procedure: as §1
The Cell Counting Kit 8 (Dojindo cat. no. CK04) was used to determine the cytotoxicity. Namely, 10 μl of Cell Counting Kit 8 were added to a clear plate and incubated for 30 to 60 minutes at 37° C. Absorbance at a wavelength of 450 nm and a control wavelength of 630 nm was measured with a 96-well plate reader. Values in the absence of cell addition were used as background values and subtracted from all values to calculate the CC50 (50% cell inhibitory concentration) of the drug based on a value of 0% inhibition for the value in the absence of addition of drug.

Row | SMILES | IC50 [1] | CC50 (in vitro)
1 | CCCCCCCC(=O)CCCCCC/C=C/[C@H](C(=O)N[C@@H](Cc1ccc(C)cc1)C(=O)O)[C@@](O)(CC(=O)O)C(=O)O [Compound 16] | 0.01 µM | > 5 µM
2 | CCCCCCCC(=O)CCCCCC/C=C/[C@H](C(=O)N[C@@H](Cc1ccc(CCCC(C)C)cc1)C(=O)O)[C@@](O)(CC(=O)O)C(=O)O [Compound 22] | 0.014 µM | > 1 µM
3 | CCCCCCCC(=O)CCCCCC/C=C/[C@H](C(=O)N[C@@H](Cc1ccc(OCCCNCc2cccnc2)cc1)C(=O)O)[C@@](O)(CC(=O)O)C(=O)O [Compound 88] | 0.018 µM | > 1 µM
4 | CCCCCCCCCC(=O)CCCC/C=C/[C@H](C(=O)N[C@@H](Cc1ccc(Oc2ccccc2)cc1)C(=O)O)[C@@](O)(CC(=O)O)C(=O)O [Compound 101] | 0.046 µM | > 1 µM
5 | CCCCCCCC(=O)CCCCCC/C=C/[C@H](C(=O)N[C@@H](Cc1ccc(Oc2cccc(F)c2)cc1)C(=O)O)[C@@](O)(CC(=O)O)C(=O)O [Compound 64] | 0.007 µM | > 1 µM
6 | CCCCCCCC(=O)CCCCCC/C=C/[C@H](C(=O)N[C@@H](Cc1ccc(Oc2cccc(C)c2)cc1)C(=O)O)[C@@](O)(CC(=O)O)C(=O)O [Compound 56] | 0.006 µM | > 1 µM
7 | CCCCCCCC(=O)CCCCCC/C=C/[C@H](C(=O)N[C@@H](Cc1ccc(-c2ccsc2)cc1)C(=O)O)[C@@](O)(CC(=O)O)C(=O)O [Compound 31] | 0.012 µM | > 1 µM
8 | CCCCCCCC(=O)CCCCCC/C=C/[C@H](C(=O)N[C@@H](Cc1ccc(CNC(=O)OCC2c3ccccc3-c3ccccc32)cc1)C(=O)O)[C@@](O)(CC(=O)O)C(=O)O [Compound 91] | 0.008 µM | > 1 µM
9 | CCCCCCCC(=O)CCCCCC/C=C/[C@H](C(=O)N[C@@H](Cc1ccc(OCc2ccccc2)cc1)C(=O)O)[C@@](O)(CC(=O)O)C(=O)O [Compound 17] | < 0.001 µM | > 5 µM
10 | CCCCCCCC(=O)CCCCCC/C=C/[C@H](C(=O)N[C@@H](Cc1ccc(OCC#CCN(CC)CC)cc1)C(=O)O)[C@@](O)(CC(=O)O)C(=O)O [Compound 108] | 0.003 µM | > 1 µM
11 | CCCCCCCC(=O)CCCCCC/C=C/[C@H](C(=O)NC(Cc1ccc(Cl)cc1)C(=O)O)[C@@](O)(CC(=O)O)C(=O)O (stereo partly shown) [Compound 34] | 0.055 µM | > 1 µM
12 | CCCCCCCC(=O)CCCCCC/C=C/[C@H](C(=O)N[C@@H](Cc1ccc(-n2cc(C(=O)OCC)nn2)cc1)C(=O)O)[C@@](O)(CC(=O)O)C(=O)O [Compound 96] | 0.009 µM | > 1 µM
13 | CCCCCCCC(=O)CCCCCC/C=C/[C@H](C(=O)N[C@@H](Cc1ccc(-c2ccccc2F)cc1)C(=O)O)[C@@](O)(CC(=O)O)C(=O)O [Compound 65] | 0.002 µM | > 1 µM
14 | C#CCCCOc1ccc(C[C@H](NC(=O)[C@@H](/C=C/CCCCCCC(=O)CCCCCCC)[C@@](O)(CC(=O)O)C(=O)O)C(=O)O)cc1 [Compound 106] | 0.001 µM | > 1 µM
15 | CCCCCCCC(=O)CCCCCC/C=C/[C@H](C(=O)N[C@@H](Cc1ccc(N(C)c2ccccc2)cc1)C(=O)O)[C@@](O)(CC(=O)O)C(=O)O [Compound 75] | 0.006 µM | > 1 µM
16 | CCCCCCCCC(=O)CCCCCC/C=C/[C@H](C(=O)N[C@@H](Cc1ccc(OCCC(C)C)cc1)C(=O)O)[C@@](O)(CC(=O)O)C(=O)O [Compound 49] | 0.004 µM | > 1 µM
17 | CCCCCCCC(=O)CCCCCC/C=C/[C@H](C(=O)N[C@@H](Cc1ccc(-c2ccc(OC)nc2)cc1)C(=O)O)[C@@](O)(CC(=O)O)C(=O)O [Compound 73] | 0.002 µM | > 1 µM
18 | CCCCCCCC(=O)CCCCCC/C=C/[C@H](C(=O)N[C@@H](Cc1ccc(C(C)(C)C)cc1)C(=O)O)[C@@](O)(CC(=O)O)C(=O)O [Compound 37] | 0.21 µM | > 1 µM
19 | CCCCCCCC(=O)CCCCCC/C=C/[C@H](C(=O)N[C@@H](Cc1ccc(NC(=N)N)cc1)C(=O)O)[C@@](O)(CC(=O)O)C(=O)O [Compound 95] | 0.395 µM | > 1 µM
20 | CCCC#CCOc1ccc(C[C@H](NC(=O)[C@@H](/C=C/CCCCCCC(=O)CCCCCCC)[C@@](O)(CC(=O)O)C(=O)O)C(=O)O)cc1 [Compound 104] | 0.001 µM | > 1 µM
21 | CCCCCCCC(=O)CCCCCC/C=C/[C@H](C(=O)N[C@@H](Cc1ccc(N=[N+]=[N-])cc1)C(=O)O)[C@@](O)(CC(=O)O)C(=O)O [Compound 90] | 0.006 µM | > 1 µM

Row | SMILES | IC50 [1] | CC50 (in vitro)
22 | CCCCCCCC(=O)CCCCCC/C=C/[C@H](C(=O)N[C@@H](Cc1ccc(CCCCC)cc1)C(=O)O)[C@@](O)(CC(=O)O)C(=O)O [Compound 26] | 0.017 µM | > 1 µM
23 | CC#CCOc1ccc(C[C@H](NC(=O)[C@@H](/C=C/CCCCCCC(=O)CCCCCCC)[C@@](O)(CC(=O)O)C(=O)O)C(=O)O)cc1 [Compound 18] | 0.001 µM | > 5 µM
24 | CCCCCCC(=O)CCCCCC/C=C/[C@H](C(=O)N[C@@H](Cc1ccc(Oc2ccccc2)cc1)C(=O)O)[C@@](O)(CC(=O)O)C(=O)O [Compound 103] | 0.011 µM | > 1 µM
25 | CCCC(=O)CCCCCC/C=C/[C@H](C(=O)N[C@@H](Cc1ccc(OCCC(C)C)cc1)C(=O)O)[C@@](O)(CC(=O)O)C(=O)O [Compound 46] | 0.8 µM | > 5 µM
26 | CCCCCCCC(=O)CCCCCC/C=C/[C@H](C(=O)N[C@@H](Cc1ccc(OC)c(OC)c1)C(=O)O)[C@@](O)(CC(=O)O)C(=O)O [Compound 23] | 0.017 µM | > 1 µM
27 | CCCCCCCC(=O)CCCCCC/C=C/[C@H](C(=O)NC(Cc1ccc(OC)cc1)C(=O)O)[C@@](O)(CC(=O)O)C(=O)O (stereo partly shown) [Compound 43] | 0.003 µM | > 1 µM
28 | CCCCCCCC(=O)CCCCCC/C=C/[C@H](C(=O)N[C@@H](Cc1ccc(N2CCOCC2)cc1)C(=O)O)[C@@](O)(CC(=O)O)C(=O)O [Compound 72] | 0.006 µM | > 1 µM
29 | CCCCCCCC(=O)CCCCCC/C=C/[C@H](C(=O)N[C@@H](Cc1ccc(Oc2ccccc2)cc1)C(=O)O)[C@@](O)(CC(=O)O)C(=O)O [Compound 15] | 0.002 µM | > 5 µM
30 | CCCCCCCC(=O)CCCCCC/C=C/[C@H](C(=O)N[C@@H](Cc1ccc(Nc2ccccc2)cc1)C(=O)O)[C@@](O)(CC(=O)O)C(=O)O [Compound 69] | 0.002 µM | > 1 µM
31 | CCCCCCCC(=O)CCCCCC/C=C/[C@H](C(=O)N[C@@H](Cc1ccc(Oc2cccc(Cl)c2)cc1)C(=O)O)[C@@](O)(CC(=O)O)C(=O)O [Compound 39] | 0.02 µM | > 1 µM
32 | CCCCCCCC(=O)CCCCCC/C=C/[C@H](C(=O)N[C@@H](Cc1ccc(NS(C)(=O)=O)cc1)C(=O)O)[C@@](O)(CC(=O)O)C(=O)O [Compound 92] | 0.002 µM | > 1 µM
33 | CCCCCCCC(=O)CCCCCC/C=C/[C@H](C(=O)N[C@@H](Cc1ccc(OCCCN2CCN(C)CC2)cc1)C(=O)O)[C@@](O)(CC(=O)O)C(=O)O [Compound 89] | 0.029 µM | > 1 µM
34 | CCCCCCCC(=O)CCCCCC/C=C/[C@H](C(=O)N[C@@H](Cc1ccc(-c2ccc(Cl)cc2)cc1)C(=O)O)[C@@](O)(CC(=O)O)C(=O)O [Compound 28] | 0.009 µM | > 1 µM
35 | CCCCCCCC(=O)CCCCCC/C=C/[C@H](C(=O)N[C@@H](Cc1ccc(OCCCN)cc1)C(=O)O)[C@@](O)(CC(=O)O)C(=O)O [Compound 82] | 0.039 µM | > 1 µM
36 | CCCCCCCCCC(=O)CCCC/C=C/[C@H](C(=O)N[C@@H](Cc1ccc(OCCC(C)C)cc1)C(=O)O)[C@@](O)(CC(=O)O)C(=O)O [Compound 45] | 0.005 µM | > 1 µM
37 | CCCCCCCC(=O)CCCCCC/C=C/[C@H](C(=O)N[C@@H](Cc1ccc2ccccc2c1)C(=O)O)[C@@](O)(CC(=O)O)C(=O)O [Compound 20] | 0.007 µM | > 5 µM
38 | CCCCCC(=O)CCCCCCCC/C=C/[C@H](C(=O)N[C@@H](Cc1ccc(OCCC(C)C)cc1)C(=O)O)[C@@](O)(CC(=O)O)C(=O)O [Compound 44] | 0.001 µM | > 1 µM
39 | CCCCCCCC(=O)CCCCCC/C=C/[C@H](C(=O)N[C@@H](Cc1ccc(-c2cncc(OC)c2)cc1)C(=O)O)[C@@](O)(CC(=O)O)C(=O)O [Compound 78] | 0.003 µM | > 1 µM
40 | CCCCCCCC(=O)CCCCCC/C=C/[C@H](C(=O)N[C@@H](Cc1ccc(OC2CCCCC2)cc1)C(=O)O)[C@@](O)(CC(=O)O)C(=O)O [Compound 21] | 0.004 µM | > 1 µM
41 | CCCCCCCC(=O)CCCCCC/C=C/[C@H](C(=O)N[C@@H](Cc1ccc(OCCN2CCOCC2)cc1)C(=O)O)[C@@](O)(CC(=O)O)C(=O)O [Compound 86] | 0.007 µM | > 1 µM
